In patent US8198447B2, “Fused tricyclic compound having aldose reductase inhibitory activity” (National University Corporation University of Toyama, priority 2007, dated 2012) one finds IC50 data, which are given here for 18 molecules.

The target in this test is Aldose reductase II (Homo sapiens, UniProt P15121). Nature of the test: Aldose reductase inhibitory activity (NADPH decrease at 340 nm, DL-glyceraldehyde substrate). The format is biochemical. To be noted: pH 6.2, 100 mM DL-glyceraldehyde, 1.5 mM NADPH. Here is the method:
A reaction solution containing a 200 mM of a phosphate buffer solution (pH 6.2), 1.5 mM of reduced nicotinamide adenine dinucleotide phosphate (NADPH), 1 mg/ml of bovine serum albumin, a test compound, and 100 mM of DL-glyceraldehyde as a substrate was prepared. Aldose reductase II (5.1×10^−1 unit/ml) was added to the solution to initiate the reaction, and the amount of NADPH reduced by the reaction was measured at an absorption wavelength of 340 nm using a spectrophotometer.
Regarding `O=C(O)Cn1c2c(c3cc(F)ccc31)CCN(Cc1ccccc1)C2=O` [Compound 22, (2-Benzyl-6-fluoro-1-oxo-1,2,3,4-tetrahydro-β-carbolin-9-yl)acetic acid], half-maximal inhibition (IC50) was put at 51.5 µM. This counts as double-digit micromolar. Consider `O=C(O)Cn1c2c(c3cc(F)ccc31)CCN(Cc1ccccc1F)C2=O` [Compound 25, [2-(2-Fluorophenylmethyl)-6-fluoro-1-oxo-1,2,3,4-tetrahydro-β-carbolin-9-yl]acetic acid], for which half-maximal inhibition (IC50) required 48.6 µM. As for `O=C(O)Cn1c2c(c3cc(Cl)ccc31)CCN(Cc1ccccc1)C2=S` [Compound 27, (2-Benzyl-6-chloro-1-thioxo-1,2,3,4-tetrahydro-β-carbolin-9-yl)acetic acid], 5 µM corresponded to half-maximal inhibition (IC50). With `COc1ccc2c(c1)c1c(n2CC(=O)O)C(=S)N(Cc2ccccc2)CC1` [Compound 29, (2-Benzyl-6-methoxy-1-thioxo-1,2,3,4-tetrahydro-β-carbolin-9-yl)acetic acid] the figure was 5.7 µM; with `O=C(O)Cn1c2c(c3cc(Cl)ccc31)CCOC2=S` [Compound 31, (6-chloro-1-thioxo-3,4-dihydro-1H-pyrano[3,4-b]indol-9-yl) acetic acid], 11.1 µM. With `O=C(O)Cn1c2c(c3cc(Br)ccc31)CCN(Cc1ccccc1)C2=S` [Compound 32, (2-Benzyl-6-bromo-1-thioxo-1,2,3,4-tetrahydro-β-carbolin-9-yl)acetic acid] the figure was 6.2 µM; with `O=C(O)Cn1c2c(c3ccccc31)CCN(c1ccccc1)C2=S` [Compound 33, (2-Phenyl-1-thioxo-1,2,3,4-tetrahydro-β-carbolin-9-yl)acetic acid], 36.3 µM; with `O=C(O)Cn1c2c(c3ccccc31)CCN(CC1CCCCC1)C2=S` [Compound 34, (2-Cyclohexylmethyl-1-thioxo-1,2,3,4-tetrahydro-β-carbolin-9-yl)acetic acid], 7.2 µM.

Regarding `O=C(O)Cn1c2c(c3ccccc31)CCN(Cc1ccco1)C2=S` [Compound 35, [2-(2-Furanylmethyl)-1-thioxo-1,2,3,4-tetrahydro-β-carbolin-9-yl]acetic acid], the half-inhibitory concentration (IC50) – broadly, the midpoint of a concentration-inhibition curve – was found to be 16.3 µM. Against the preceding molecule, the IC50 is about 2.3-fold higher.

On to `O=C(O)Cn1c2c(c3ccccc31)CCN(Cc1cccs1)C2=S` [Compound 36, [2-(2-Thienylmethyl)-1-thioxo-1,2,3,4-tetrahydro-β-carbolin-9-yl]acetic acid], for which half-maximal inhibition (IC50) required 7.6 µM. As for `O=C(O)Cn1c2c(c3ccc(Cl)cc31)CCN(Cc1ccc(Br)cc1F)C2=S` [Compound 37], the IC50 is 27.4 µM. `O=C(O)Cn1c2c(c3ccc(Cl)cc31)CCN(Cc1ccccc1)C2=S` [Compound 38, (2-Benzyl-7-chloro-1-thioxo-1,2,3,4-tetrahydro-β-carbolin-9-yl)acetic acid] displayed an IC50 of 3.7 µM.

`O=C(O)Cn1c2c(c3c(F)cc(F)cc31)CCN(Cc1ccc(Br)cc1F)C2=S` [Compound 39] returned a half-maximal inhibitory concentration (IC50) of 21.1 µM. For `O=C(O)Cn1c2c(c3cc(O)ccc31)CCN(Cc1ccccc1)C2=S` [Compound 40, (2-Benzyl-6-hydroxy-1-thioxo-1,2,3,4-tetrahydro-β-carbolin-9-yl)acetic acid], the half-inhibitory concentration (IC50) was determined as 4.8 µM. On to `O=C(O)COc1ccc2c(c1)c1c(n2CC(=O)O)C(=S)N(Cc2ccccc2)CC1` [Compound 42, (2-Benzyl-6-carboxymethoxy-1-thioxo-1,2,3,4-tetrahydro-β-carbolin-9-yl)acetic acid], for which half-maximal inhibition (IC50) required 2.6 µM. Consider `O=C(O)Cn1c2c(c3ccccc31)CCN(C(=O)c1ccc(F)cc1)C2=O` [Compound 46, [2-(4-fluorobenzoyl)-1-oxo-1,2,3,4-tetrahydro-β-carbolin-9-yl)acetic acid], for which half-maximal inhibition (IC50) was put at 21.7 µM. Then `O=C(O)Cn1c2c(c3ccccc31)CCN(C(=O)c1ccc(Br)cc1)C2=O` [Compound 47, [2-(4-Bromobenzoyl)-1-oxo-1,2,3,4-tetrahydro-β-carbolin-9-yl]acetic acid], with 34.6 µM; and `COc1ccc(C(=O)N2CCc3c(n(CC(=O)O)c4ccccc34)C2=O)cc1` [Compound 48], with 35.8 µM.
